The target in the test is rat brain cortical membranes ([35S]-TBPS binding). The test can be described thus: Steroid inhibition of [35S]-TBPS binding (radioligand displacement). The note with it: 3 nM [35S]-TBPS, in the presence of 5 μM GABA. As for the experimental part: Steroid Inhibition of TBPS Binding
TBPS binding assays using rat brain cortical membranes in the presence of 5 μM GABA has been described (Gee et al, J. Pharmacol. Exp. Ther. 1987, 241, 346-353; Hawkinson et al, Mol. Pharmacol. 1994, 46, 977-985; Lewin, A. H et al., Mol. Pharmacol. 1989, 35, 189-194).
Briefly, cortices are rapidly removed following decapitation of carbon dioxide-anesthetized Sprague-Dawley rats (200-250 g). The cortices are homogenized in 10 volumes of ice-cold 0.32 M sucrose using a glass/teflon homogenizer and centrifuged at 1500×g for 10 min at 4° C. The resultant supernatants are centrifuged at 10,000×g for 20 min at 4° C. to obtain the P2 pellets. The P2 pellets are resuspended in 200 mM NaCl/50 mM Na—K phosphate pH 7.4 buffer and centrifuged at 10,000×g for 10 min at 4° C. This washing procedure is repeated twice and the pellets are resuspended in 10 volumes of buffer. Aliquots (100 uL) of the membrane suspensions are incubated with 3 nM [^35S]-TBPS and 5 μL aliquots of test drug dissolved in dimethyl sulfoxide (DMSO) (final 0.5%) in the presence of 5 μM GABA. The incubation is brought to a final volume of 1.0 mL with buffer. […] Following a 90 min incubation at room temp, the assays are terminated by filtration through glass fiber filters (Schleicher and Schuell No. 32) using a cell harvester (Brandel) and rinsed three times with ice-cold buffer. Filter bound radioactivity is measured by liquid scintillation spectrometry. Non-linear curve fitting of the overall data for each drug averaged for each concentration is done using Prism (GraphPad). […] The concentration of test compound producing 50% inhibition (IC50) of specific binding and the maximal extent of inhibition (Imax) are determined for the individual experiments with the same model used for the overall data and then the means±SEMs of the individual experiments are calculated.
Various compounds are or can be screened to determine their potential as modulators of [^35S]-TBPS binding in vitro. These assays are or can be performed in accordance with the above discussed procedures.
On the technique in general: In a radioligand displacement assay an active substance lowers the binding of a labelled ligand.
One may read the IC50 as the concentration at which inhibition is half-maximal. On to `C[C@@]1(O)CC[C@H]2[C@H](CC[C@@H]3[C@@H]2CC[C@]2(C)[C@@H](C(=O)c4nccs4)CC[C@@H]32)C1` [Compound 2], for which the IC50 is over 100 nM. On to `Cn1ccnc1C(=O)[C@H]1CC[C@H]2[C@@H]3CC[C@@H]4C[C@](C)(O)CC[C@@H]4[C@H]3CC[C@]12C` [Compound 3], for which the IC50 is over 100 nM. The result for `C[C@@]1(O)CC[C@H]2[C@H](CC[C@@H]3[C@@H]2CC[C@]2(C)[C@@H](C(=O)c4cccs4)CC[C@@H]32)C1` [Compound 4] reads 20 to 50 nM; that for `C[C@@]1(O)CC[C@H]2[C@H](CC[C@@H]3[C@@H]2CC[C@]2(C)[C@@H](C(=O)c4cc5ccccc5o4)CC[C@@H]32)C1` [Compound 5], 20 to 50 nM; that for `Cn1c(C(=O)[C@H]2CC[C@H]3[C@@H]4CC[C@@H]5C[C@](C)(O)CC[C@@H]5[C@H]4CC[C@]23C)nc2ccccc21` [Compound 6], over 100 nM. As for `Cn1c(C(=O)[C@H]2CC[C@H]3[C@@H]4CC[C@@H]5C[C@](C)(O)CC[C@@H]5[C@H]4CC[C@]23C)cc2ccccc21` [Compound 7], the IC50 lay within 50 to 100 nM. With `Cn1nccc1C(=O)[C@H]1CC[C@H]2[C@@H]3CC[C@@H]4C[C@](C)(O)CC[C@@H]4[C@H]3CC[C@]12C` [Compound 9], the IC50 lay within 20 to 50 nM.

In the case of `C[C@@]1(O)CC[C@H]2[C@H](CC[C@@H]3[C@@H]2CC[C@]2(C)[C@@H](C(=O)c4ccsc4)CC[C@@H]32)C1` [Compound 10], the IC50 is under 20 nM. For `C[C@@]1(O)CC[C@H]2[C@H](CC[C@@H]3[C@@H]2CC[C@]2(C)[C@@H](C(=O)c4csc5ccccc45)CC[C@@H]32)C1` [Compound 11], the half-maximal inhibitory concentration (IC50) was 20 to 50 nM. For the molecule `C[C@@]1(O)CC[C@H]2[C@H](CC[C@@H]3[C@@H]2CC[C@]2(C)[C@@H](C(=O)c4coc5ccccc45)CC[C@@H]32)C1` [Compound 12], the IC50 was in the range of 20 to 50 nM. Consider `COc1cc(OC)cc(C(=O)[C@H]2CC[C@H]3[C@@H]4CC[C@H]5C[C@](C)(O)CC[C@]5(C)[C@H]4CC[C@]23C)c1` [Compound 13], for which the IC50 is over 100 nM. In the case of `C[C@@]1(O)CC[C@@]2(C)[C@@H](CC[C@@H]3[C@@H]2CC[C@]2(C)[C@@H](C(=O)c4ccc5ccccc5c4)CC[C@@H]32)C1` [Compound 14], the IC50 is 50 to 100 nM. On to `Cc1cc(C)cc(C(=O)[C@H]2CC[C@H]3[C@@H]4CC[C@@H]5C[C@](C)(O)CC[C@@H]5[C@H]4CC[C@]23C)c1` [Compound 16], for which the IC50 was under 20 nM. On to `Cc1ccc(C(=O)[C@H]2CC[C@H]3[C@@H]4CC[C@@H]5C[C@](C)(O)CC[C@]5(C)[C@H]4CC[C@]23C)cc1C` [Compound 17], for which the IC50 lay in the range of 50 to 100 nM. The figure for `C[C@@]1(O)CC[C@@]2(C)[C@H](CC[C@@H]3[C@@H]2CC[C@]2(C)[C@@H](C(=O)c4ccc5ccccc5c4)CC[C@@H]32)C1` [Compound 18] is 50 to 100 nM; for `C[C@@]1(O)CC[C@H]2[C@H](CC[C@@H]3[C@@H]2CC[C@]2(C)[C@@H](C(=O)c4ccc5ccccc5c4)CC[C@@H]32)C1` [Compound 19] it is 50 to 100 nM. In the case of `Cc1ccc(C(=O)[C@H]2CC[C@H]3[C@@H]4CC[C@@H]5C[C@](C)(O)CC[C@@H]5[C@H]4CC[C@]23C)cc1C` [Compound 20], the IC50 was 50 to 100 nM. With `COc1cc(OC)cc(C(=O)[C@H]2CC[C@H]3[C@@H]4CC[C@@H]5C[C@](C)(O)CC[C@]5(C)[C@H]4CC[C@]23C)c1` [Compound 21], the IC50 is over 100 nM. As for `C[C@@]1(O)CC[C@@]2(C)[C@H](CC[C@@H]3[C@@H]2CC[C@]2(C)[C@@H](C(=O)c4ccc(-c5ccccc5)cc4)CC[C@@H]32)C1` [Compound 22], the IC50 was 50 to 100 nM. On to `C[C@@]1(O)CC[C@@]2(C)[C@H](CC[C@@H]3[C@@H]2CC[C@]2(C)[C@@H](C(=O)c4cc(F)cc(F)c4)CC[C@@H]32)C1` [Compound 23], for which the IC50 fell in the range of 50 to 100 nM. `C[C@@]1(O)CC[C@@]2(C)[C@H](CC[C@@H]3[C@@H]2CC[C@]2(C)[C@@H](C(=O)c4ccc5c(c4)OCO5)CC[C@@H]32)C1` [Compound 24]: the IC50 is under 20 nM. For `CSc1ccc(C(=O)[C@H]2CC[C@H]3[C@@H]4CC[C@@H]5C[C@](C)(O)CC[C@@H]5[C@H]4CC[C@]23C)cc1` [Compound 25], the IC50 is 20 to 50 nM.

In the case of `Cc1cc(C(=O)[C@H]2CC[C@H]3[C@@H]4CC[C@@H]5C[C@](C)(O)CC[C@@H]5[C@H]4CC[C@]23C)ccc1F` [Compound 26], the IC50 lay in the range of 20 to 50 nM. The figure for `Cc1ccc(C(=O)[C@H]2CC[C@H]3[C@@H]4CC[C@@H]5C[C@](C)(O)CC[C@]5(C)[C@H]4CC[C@]23C)cc1F` [Compound 27] is 20 to 50 nM. In the case of `C[C@@]1(O)CC[C@@]2(C)[C@H](CC[C@@H]3[C@@H]2CC[C@]2(C)[C@@H](C(=O)c4ccccc4)CC[C@@H]32)C1` [Compound 28], the IC50 fell in the range of 20 to 50 nM. Regarding `CN(C)c1ccc(C(=O)[C@H]2CC[C@H]3[C@@H]4CC[C@@H]5C[C@](C)(O)CC[C@@H]5[C@H]4CC[C@]23C)cc1` [Compound 32], the IC50 lay within 20 to 50 nM.

As for `COc1ccc(C(=O)[C@H]2CC[C@H]3[C@@H]4CC[C@@H]5C[C@](C)(O)CC[C@]5(C)[C@H]4CC[C@]23C)c(C)c1` [Compound 33], the IC50 was over 100 nM. For the molecule `C[C@@]1(O)CC[C@H]2[C@H](CC[C@@H]3[C@@H]2CC[C@]2(C)[C@@H](C(=O)c4ccc(OC(F)(F)F)cc4)CC[C@@H]32)C1` [Compound 34], the IC50 was under 20 nM. With `C[C@@]1(O)CC[C@H]2[C@H](CC[C@@H]3[C@@H]2CC[C@]2(C)[C@@H](C(=O)c4ccc5c(c4)OCO5)CC[C@@H]32)C1` [Compound 35], the IC50 was under 20 nM. Turning to `C[C@@]1(O)CC[C@@]2(C)[C@@H](CC[C@@H]3[C@@H]2CC[C@]2(C)[C@@H](C(=O)c4cc(F)cc(F)c4)CC[C@@H]32)C1` [Compound 37], the IC50 lay within 50 to 100 nM. The result for `Cc1cc(C(=O)[C@H]2CC[C@H]3[C@@H]4CC[C@H]5C[C@](C)(O)CC[C@]5(C)[C@H]4CC[C@]23C)ccc1F` [Compound 38] reads 50 to 100 nM; that for `Cc1ccc(C(=O)[C@H]2CC[C@H]3[C@@H]4CC[C@H]5C[C@](C)(O)CC[C@]5(C)[C@H]4CC[C@]23C)cc1C` [Compound 39], 50 to 100 nM; that for `CN(C)c1ccc(C(=O)[C@H]2CC[C@H]3[C@@H]4CC[C@@H]5C[C@](C)(O)CC[C@]5(C)[C@H]4CC[C@]23C)cc1` [Compound 40], 20 to 50 nM. `Cc1ccc(C(=O)[C@H]2CC[C@H]3[C@@H]4CC[C@@H]5C[C@](C)(O)CC[C@@H]5[C@H]4CC[C@]23C)cc1F` [Compound 41]: the IC50 fell in the range of 20 to 50 nM.

Regarding `CCc1ccc(C(=O)[C@H]2CC[C@H]3[C@@H]4CC[C@@H]5C[C@](C)(O)CC[C@@H]5[C@H]4CC[C@]23C)cc1` [Compound 42], the 50% inhibitory concentration (IC50) was under 20 nM.

For the molecule `COc1ccc(C(=O)[C@H]2CC[C@H]3[C@@H]4CC[C@@H]5C[C@](C)(O)CC[C@@H]5[C@H]4CC[C@]23C)c(C)c1` [Compound 43], the IC50 is 20 to 50 nM. As for `C[C@@]1(O)CC[C@H]2[C@H](CC[C@@H]3[C@@H]2CC[C@]2(C)[C@@H](C(=O)c4ccc(-c5ccccc5)cc4)CC[C@@H]32)C1` [Compound 44], the IC50 was in the range of 50 to 100 nM. Turning to `Cc1ccc(C(=O)[C@H]2CC[C@H]3[C@@H]4CC[C@H]5C[C@](C)(O)CC[C@]5(C)[C@H]4CC[C@]23C)cc1F` [Compound 45], the IC50 is over 100 nM.

Regarding `Cc1ccsc1C(=O)[C@H]1CC[C@H]2[C@@H]3CC[C@@H]4C[C@](C)(O)CC[C@@H]4[C@H]3CC[C@]12C` [Compound 46], the IC50 is over 100 nM.

The record behind these values is patent US11945836B2, “Compositions and methods for treating CNS disorders” (Sage Therapeutics, Inc., priority 2014, dated 2024).
